According to patent publication US5059590A, “Imidazole derivatives, process for production thereof, and use thereof” (Yamasa Shoyu Kabushiki Kaisha, priority 1988, dated 1991):
Converted amounts (≈) assume the structure as drawn.

Assays:
Format in all cases: cell-based
[1] = tested on: L1210 mouse leukemia cells; assay: In vitro anti-proliferative activity against mouse tumor cell lines, Test Method 1 (L1210); conditions: L1210, 48 hours, 37° C.
Experimental: (§1) In vitro anti-proliferative activity against mouse tumor cell lines
1. L1210 mouse leukemia cells are cultivated in RPMI1640 medium supplemented with 10% fetal bovine serum, and the resultant cells are diluted with the same medium in the logarithmic growth phase to a concentration of 1.6×10^5 cells/ml.
2. To test tubes each containing 0.9 ml of the above obtained diluted cell suspension is added 0.1 ml each of test solutions serially diluted with a culture medium or phosphate-buffered saline (PBS), and the mixture is incubated in a 2% CO2 -incubator at 37° C. for 48 hours.
3. After incubation, the number of the cells in each tube is counted with a Coulter counter (Model ZB, Coulter Electronics), and the growth inhibition percent (%) of the cells at each concentration of a test compound is calculated from the following equation: [formula] Tx: Number of the cells in a test tube containing a test compound as counted upon completion of the incubation (cells/ml)
Cx: Number of the cells in a test tube containing no test compound as counted upon completion of the incubation (cells/ml)
Co: Number of the cells in a test tube containing no test compound as counted at the initiation of the incubation (cells/ml)
4. The concentration of the test compound, which causes cell growth inhibition by 50%, is determined by the graph showing the relationship between the growth inhibition percent and the concentration of the test compound, and is defined as 50% inhibitory concentration (IC50).

[2] = tested on: Mouse lymphoma cell line P388; assay: In vitro anti-proliferative activity against mouse tumor cell lines, Test Method 2 (P388); conditions: P388, 48 hours, 37° C.
Experimental: as §1
(§2) 1. Mouse lymphoma cell line P388 or mouse sarcoma 180 is suspended in RPMI1640 medium supplemented with 10% fetal bovine serum and 2 μM 2-hydroxyethyl disulfide to a concentration of 10^5 cells/ml. Test compounds are serially diluted with the same medium.
(§3) 2. 0.5 ml of the cell suspension thus obtained is admixed with 0.5 ml of the medium or the test compound solution, and the mixture is incubated in a 5% CO2 -incubator at 37° C. for 48 hours. The incubation is carried out in glass culture tubes.
(§4) 3. At the end of incubation, the number of the cells in each tube is counted with a Coulter counter (Model ZB, Coulter Electronics), and the growth inhibition percent (%) is calculated from the same equation as in Test Method 1.
(§5) 4. The IC50 value is obtained as in Test Method I.

mouse sarcoma 180 = assay: In vitro anti-proliferative activity against mouse tumor cell lines, Test Method 2 (sarcoma 180); conditions: Sarcoma 180, 48 hours, 37° C.
Experimental: as §1, §2, §3, §4, §5

SMILES	IC50 [1] [µg/mL]	IC50 [2] [µg/mL]	IC50 (mouse sarcoma 180) [µg/mL]
C#Cc1[nH]cnc1C(N)=O [5-ethynylimidazole-4-carboxamide]	4 (≈ 29.6 µM)	4.37 (≈ 32.3 µM)	1.39 (≈ 10.3 µM)
N#Cc1ncn([C@@H]2O[C@H](CO)[C@@H](O)[C@H]2O)c1C#CCO [R = [drawing 28]; A = CN; R^1 = CH2 OH, 5-(3-Hydroxy-1-propyn-1-yl)-1-β-D-ribofuranosylimidazole-4-carbonitrile]	4.1 (≈ 14.7 µM)	–	–
CCCC#Cc1c(C(N)=O)ncn1[C@@H]1O[C@H](CO)[C@@H](O)[C@H]1O [R = [drawing 28]; A = CONH2; R^1 = C3, 5-(1-pentyn-1-yl)-1-β-D-ribofuranosylimidazole-4-carboxamide]	2.92 (≈ 9.44 µM)	–	–
NC(=O)c1ncn([C@@H]2O[C@H](CO)[C@@H](O)[C@H]2O)c1C#CCCO [5-(4-hydroxy-1butyn-1-yl)-1β-D-ribofuranosylimidazole-4-carboxamide]	1.28 (≈ 4.11 µM)	–	–
NC(=O)c1ncn([C@@H]2O[C@H](CO)[C@@H](O)[C@H]2O)c1C#CCO [R = [drawing 28]; A = CONH2; R^1 = CH2 OH, 5-(3-Hydroxy-1-propyn-1-yl)-1-β-D-ribofuranosylimidazole-4-carboxamide]	0.7 (≈ 2.35 µM)	–	–
C#Cc1c(C#N)ncn1[C@@H]1O[C@H](CO)[C@@H](O)[C@H]1O [5-ethynyl-1-β-D-ribofuranosylimidazole-4-carbonitrile]	1.9 (≈ 7.62 µM)	0.93 (≈ 3.73 µM)	0.8 (≈ 3.21 µM)
N#Cc1ncn([C@@H]2O[C@H](CO)[C@@H](O)[C@H]2O)c1C#CCCO [R = [drawing 28]; A = CN; R^1 = CH2 CH2 OH, 5-(4-hydroxy-1-butyn-1yl)-1-β-D-ribofuranosylimidazole-4-carbonitrile]	3.3 (≈ 11.3 µM)	–	–
C#Cc1[nH]cnc1C#N [5-ethynylimidazole-4-carbonitrile]	2.9 (≈ 24.8 µM)	14.1 (≈ 120 µM)	9.92 (≈ 84.7 µM)
